The source of these data is patent publication US20050053668A1, “Skeletally targeted nanoparticles” (Southwest Research Institute, priority 2003, published 2005).

The subject of data set [1] is myeloma cell. The settings on record: in vitro; cited from earlier work.
The test system of data set [2] is panel of tumor cells. The following applies: cited from earlier work.
The conditions of data set [3]: cited from earlier work.
Data set [4] is classed as physicochemical. As for the experimental part: Lovastatin was encapsulated in MBP-lipid conjugate micelles at ratios ranging from about 1:1 to 1:50 mol:mol lovastatin:lipid using the phase separation technique. All preparations initially produced clear, colorless solutions, indicating complete solubilization of lovastatin by the lipid. However, over time, usually within about 24 hours, needle-like crystals were observed on the surface of the fluid. […] The crystals were confirmed to be lovastatin by HPLC analysis.

Data set [5] has as its system unloaded bones. The following applies: infusion; cited from earlier work.
For data set [6], the system named is hindlimb unloaded rats. The settings on record: cited from earlier work.

Turning to `CC(C)C[C@H](NC(=O)[C@H](Cc1ccccc1)NC(=O)c1cnccn1)B(O)O` [PS-341], the “inhibition of myeloma cell growth and survival” value in data set [1] was “potent inhibitor”. Moreover, the cytotoxicity entry in data set [2] is given as “cytotoxic”. Also, in data set [3], the “side-effects in clinical use” value is listed as “thrombocytopenia, peripheral neuropathy, hypotension, and, in severe cases, cardiovascular toxicity”.
`CC[C@H](C)C(=O)O[C@H]1C[C@@H](C)C=C2C=C[C@H](C)[C@H](CC[C@@H]3C[C@@H](O)CC(=O)O3)[C@H]21` [lovastatin]: in data set [4], the “amount of stabilized lovastatin after ageing” value is on record as “increased slightly”; the “lovastatin stabilized in micelles” value is “about 0.03 μg/μg of lipid”; the “lovastatin stabilized in micelles, molar ratio” value is reported as ~1:5 mol:mol lovastatin:lipid. Besides, in data set [4] (micelles of MBP-based ligand-phospholipid conjugate, FIG. 9), the “lovastatin encapsulated before free drug precipitates” value is “about 0.03 μg of lovastatin/μg of lipid”. In data set [4] (preparations 1:1 to 1:50 mol:mol lovastatin:lipid), the “time until needle-like lovastatin crystals were observed” value was at most 24 h.
Take “IGF-1: insulin-like growth factor, regulates bone formation”: the “dose required to demonstrate any protective effect against unloading” value in data set [5] is 2 mg/kg/day.
Take TGF-β: the “effect on bone formation in control animals” value in data set [6] (infusion 2 μg/kg/day, control animals) is on record as “has no effect on bone formation”. Moreover, the “effect on unloading-induced bone changes” value in data set [6] (infusion 2 μg/kg/day, hindlimb unloading in rats) is “corrects the decrease in bone mass, calcium content, osteoblast number and mineralization rate”. The “effect on indices of bone resorption” value in data set [6] (infusion, normal and unloaded rats) is on record as “decreases the indices of bone resorption”.
